{"source": "paper PMC8750527", "about": "(Cancers, 2021)", "key": {"DAOY [1]": {"test_system": "DAOY", "assay": "MTT assay, 48 h exposure, DAOY MB cells", "format": "cell-based, human", "details": "Homo sapiens, Daoy; Table 1; MTT, 48 h exposure; mean ± SEM", "method": "(§1) HDF (3000 cells), C8-D1A (5000 cells), D458 (5000 cells), DAOY (2000 cells), HD-MB03 (10,000 cells) and CHLA-01-Med (10,000 cells) were seeded at an approximate confluency of 50% in 96-well plates (Corning Inc., Corning, NY, USA) in 100 µL medium per well. A range from 50 nM to 150 µM of every drug was tested. The effects of the antiangiogenic compounds were measured using a 3-[4,5-dimethylthiazol-2yl]-diphenyltetrazolium bromide (MTT) colorimetric assay (Sigma, Lyon, France) according to the manufacturer’s instructions. When applicable, IC50 was calculated using the nonlinear regression method of the Prism 5 software (Graphpad Software Inc., San Diego, CA, USA). […] An MTT assay was conducted as described above to assess the fitness of the cells."}, "[2]": {"test_system": "group 3 (D283, D458 and HD-MB03) and putative Shh group (DAOY) MB cell lines", "assay": "MTT assay, mean IC50 over group 3 and Shh MB cell lines", "format": "cell-based", "details": "Homo sapiens", "method": "as §1"}, "HDF": {"test_system": "HDF", "assay": "Cell viability, propidium iodine incorporation, HDF", "format": "cell-based, human", "details": "48 h; axitinib, cabozantinib 5 µM, etoposide 1 µM", "method": "(§2) Cell viability assays were conducted using a propidium iodine incorporation technique with an ADAM-sHIT automated cell counter (NanoEnTek, Gyeonggi-do, Korea) according to the manufacturer’s protocol."}, "C8-D1A astrocytes": {"test_system": "C8-D1A astrocytes", "assay": "Cell viability, propidium iodine incorporation, C8-D1A", "format": "cell-based, murine", "details": "48 h; axitinib, cabozantinib, sunitinib 5 µM, etoposide 1 µM", "method": "as §2"}, "DAOY [3]": {"test_system": "DAOY", "assay": "Cumulative population doubling (CPD), DAOY", "format": "cell-based, human", "details": "continuous treatment; axitinib 5 µM, etoposide 1 µM", "method": "Cumulative population doubling (CPD) was assessed as previously described. Briefly, depending on the cell line, a variable number of cells corresponding to about 30% confluency were seeded in triplicate in 60 mm diameter Petri dishes. […] The cells were harvested when the confluency reached about 90%, counted and plated again at a dilution of 1/20. CPD was calculated as previously described."}, "[4]": {"test_system": "human brain endothelial cells (BEC, hCMEC/D3)", "assay": "MTT assay, brain endothelial cells", "format": "cell-based", "details": "after three days, 1, 5 and 25 µM tested"}, "barrier formed by HUVEC": {"test_system": "barrier formed by HUVEC", "assay": "In vitro endothelium permeability assay (FITC-Dextran), HUVEC", "format": "cell-based, human", "details": "3-day treatment, nontoxic doses", "method": "This assay was conducted as previously described. […] Permeability was measured by the passage of 40 kDa FITC-Dextran through the inserts. Fluorescence intensity measures were normalized to the DMSO control."}, "subcutaneous DAOY tumors": {"test_system": "subcutaneous DAOY tumors", "details": "oral, thrice a week; axitinib 50 mg/kg, etoposide 30 mg/kg, combination 25 + 15 mg/kg", "method": "For subcutaneous xenograft experiments, tumor cells expressing the luciferase (350,000 HDMB-Luc cells and 1.10^6 DAOY-Luc cells) were resuspended in 200 µL of 5 µg/mL Matrigel (Corning Inc., Corning, NY, USA) and injected subcutaneously in the flank of 5-week-old Rj:NMRI-Foxn1 nude (nu/nu) female mice (Janvier Labs, Le Genest-Saint-Isle, France). Saline solution (NaCl 0.9M; 100 µL) containing 30 mg/mL D-Luciferin (Perkin Elmer, Wellesley, MA, USA) was injected intraperitoneally in the animals and the bioluminescence was quantified using an In Vivo Imaging System (Perkin Elmer, Wellesley, MA, USA) according to the manufacturer’s instructions. Tumor volume (V = L × l2 × 0.52) was determined with a caliper and the endpoint was determined as a tumor volume of 1000 mm^3. […] The mice were sacrificed when the tumor reached 1000 mm^3. […]\nThe growth rate of the tumors generated with HD-MB03 cells was determined using a linear regression method applied to the growth curves between the sizes of 400 mm^3 up to the endpoint using Prism 5 (Graphpad Software Inc., San Diego, CA, USA).\nTumor samples were recovered from the animals and embedded in the OCT compound according to the manufacturer’s protocol (Thermo Fisher Scientific Inc., Waltham, MA, USA). […] All the images were then quantified with the CellProfiler 3.0 software."}, "[5]": {"test_system": "children presenting with refractory or recurrent tumors", "details": "phase I study ref 20; cited from earlier work"}, "[6]": {"test_system": "normal cells (C8-D1A, HDF)", "assay": "Proliferation index assay, normal cells", "details": "120 h; axitinib 5 µM, etoposide 1 µM"}}, "data": [{"smiles": "CNC(=O)c1ccccc1Sc1ccc2c(/C=C/c3ccccn3)n[nH]c2c1", "note": "[Axitinib, axitinib]", "values": [{"measurement": "IC50", "setting": "DAOY [1]", "result": "2.3 ± 1.5", "unit": "µM"}, {"measurement": "IC50", "setting": "[2]", "result": "1100 ± 900", "unit": "nM"}, {"measurement": "viability of HDF normal cells", "setting": "HDF", "result": "no effect on the viability"}, {"measurement": "viability of C8-D1A normal cells", "setting": "C8-D1A astrocytes", "result": "no effect on the viability"}, {"measurement": "long-term proliferation (CPD) of DAOY cells", "setting": "DAOY [3]", "result": "strongly impaired their proliferation"}, {"measurement": "doses displaying toxicity in brain endothelial cells", "setting": "[4]", "result": "higher than 1 µM"}, {"measurement": "permeability of the barrier formed by HUVEC", "setting": "barrier formed by HUVEC", "result": "permeabilized the barrier"}, {"measurement": "tumor growth (lognormal mathematical modelling)", "setting": "subcutaneous DAOY tumors", "result": "did not impair tumor growth"}, {"measurement": "maximum tolerated and recommended dose in children", "setting": "[5]", "result": 2.4, "unit": "mg/m^2"}, {"measurement": "proliferation of normal cells", "setting": "[6]", "result": "impaired in these conditions, although to a lower extent"}]}]}
